No end group written: not given here.
How the values were obtained:
[1] = tested on: B. cinerea B-134; assay type: cell-based, Botrytis cinerea
Experimental: (§1) (A) Bacterial growth inhibited by LsGRP1-derived peptides. The bacterial suspension with an OD600 of 0.15 was treated with 2.5 mg/ml peptide solution for 90 min, and the CFUs in each peptide sample were measured at 20-24 h post treatment by serial-dilution plating Inhibition of bacterial growth (%)=[(CFUs in water treatment−CFUs in peptide treatment)/CFUs in water treatment]×100%. (B) Spore germination of plant fungal pathogens inhibited by LsGRP1-derived peptides. Fungal spores with a concentration of 1×10^5 spores/ml were treated with 2.5 mg/ml peptide for 16-20 h before the observation of spore germination under light microscope. Inhibition of fungal spore germination (%)=[(Number of spores germinating in water−Number of spores germinating in peptide solution)/Number of spores germinating in water]×100%.
(§2) The fungi used in this study included Alternaria brassicicola Ac1, Botrytis cinerea B-134, Botrytis elliptica B061, Colletotrichum acutatum HL1, and Colletotrichum gleosporioides MT1. […]
(§3) The antibacterial and antifungal activities of these peptides were determined by measuring the inhibition rate of bacterial growth and fungal spore germination. […] After incubation for 20-24 h, the colony-forming units (CFUs) in each peptide-treated sample were quantified. […]

[2] = tested on: assayed microbes (bacterial and fungal species); assay type: cell-based
Experimental: The antibacterial and antifungal activities of these peptides were determined by measuring the inhibition rate of bacterial growth and fungal spore germination. Bacterial suspensions with an OD600 at 0.15 were treated with peptide solution for 90 min, then serially diluted and plated on LB media. After incubation for 20-24 h, the colony-forming units (CFUs) in each peptide-treated sample were quantified. The inhibition of bacterial growth (%)=[(CFUs in water treatment−CFUs in peptide treatment)/CFUs in water treatment]×100%. On the other hand, fungal spore suspensions of 1×10^5 spores/ml were treated with peptide solutions for 16-20 h, and then the spore germinations were examined under microscope. The germ tube greater than two times of spore length was considered germinated Inhibition of fungal spore germination (%)=[(Number of the spores germinating in water−Number of the spores germinating in peptide solution)/Number of the spores germinating in water]×100%. Sterile deionized water replaced the peptide solution as a control treatment. All assays were performed in triplicate. Based on the data, the concentrations of peptide for 50% growth inhibition (IC50) of each microbe were determined.
According to the IC50 values of LsGRP1^C on different bacterial and fungal species, the antimicrobial potency of LsGRP1^C was verified.

[3] = tested on: D. chrysanthemi TA1; assay type: cell-based, Dickeya chrysanthemi; settings: 2500 μg/ml peptide, 90 min, CFUs at 20-24 h
Experimental: as §1
(§4) The bacterial strains used in this invention included Agrobacterium tumefaciens C58C^1 (Van Larebeke et al., 1974), Bacillus subtilis 28-4, Escherichia coli DH5α (Invitrogen), Dickeya chrysanthemi TA1, Pseudomonas syringae pv. syringae 61 (Huang et al., 1988), and Xanthomonas campestris XCP3. […]
as §3

[4] = tested on: A. brassicicola; assay: Disease suppression assay, cabbage black spot; assay type: in vivo, Alternaria brassicicola on cabbage leaves; settings: 7 days after inoculation
Experimental: (§5) The synthetic LsGRP1^C solutions of 2.5, 0.25 or 0.025 mg/ml were used. LsGRP1^C solution was dropped onto the surface of cabbage leaves. Meanwhile 5 μl spore suspension of A. brassicicola (2×10^5 conidia/ml), a fungal pathogen of cabbage black spot, was mixed with LsGRP1^C solution. In addition, fungal spore suspension was deposited before or after LsGRP1^C application. On the other hand, synthetic LsGRP1^C solution was dropped onto strawberry flowers, and then mixed with spore suspension of B. cinerea (2×10^5 conidia/ml). Similarly, synthetic LsGRP1^C solution was dropped onto tomato leaves, and then mixed with bacterial suspension of P. syringae (10^7 CFU/ml). Sterile water was used instead of LsGRP1^C solution as a control. Lesion development was examined visually.
Fungal inoculation was two days (−2) or one day (−1) before treatment besides at same time of the treatment. Fungal inoculation was also performed two day (2) or one day (1) after treatment.

[5] = tested on: P. syringae pv. syringae 61; assay type: cell-based, Pseudomonas syringae pv. syringae; settings: Inhibition of bacterial growth (OD600 = 0.15)
Experimental: as §1, §4, §3

[6] = tested on: B. elliptica; assay: H2DCFDA staining (reactive oxygen species accumulation), non-germinating spores; assay type: cell-based, Botrytis elliptica; settings: 50 μg/ml, 2 h
Experimental: (§6) The fungal spores (A) and hyphae (B) were treated with 50 μg/ml LsGRP1^C for 2 h and 16 h, respectively. Then membrane permeability, chromatin condensation and reactive oxygen species accumulation of treated spores and hyphae were assayed by staining with SYTOX Green, DAPI and H2DCFDA, respectively. Sterile deionized water was used instead of LsGRP1^C as a control. Bar=20 μm (A) or 50 μm (B).
(§7) Fungal spore and hyphae were treated with 50 μg/ml peptide solution for 2 h and 16 h, respectively. Then the fungal cells were stained with 10 μM 2′,7′-dichlorodihydrofluorescein diacetate (H2DCFDA) in the dark for 60 min before observation under Leica DMIL florescent microscope equipped with a Chroma 41012 filter set. Sterile deionized water was used instead of peptide solution as a control.

[7] = tested on: assayed fungal species; assay: Growth inhibition assay, fungal spore germination, statements on the assayed fungal species; assay type: cell-based
Experimental: as §1, §2, §3

[8] = tested on: E. coli DH5α; assay type: cell-based, Escherichia coli; settings: Inhibition of bacterial growth (OD600 = 0.15)
Experimental: as §1, §4, §3

[9] = tested on: spores and hyphae of A. brassicicola Ac1, B. cinerea B-134, B. elliptica B061 and C. acutatum HL1; assay: Light microscopy of treated fungal spores and hyphae; assay type: cell-based; settings: 50 μg/ml; spores 2 h, hyphae 16 h
[10] = tested on: spores and hyphae of A. brassicicola Ac1, B. cinerea B-134, B. elliptica B061 and C. acutatum HL1; assay: DAPI staining of fungal spores and hyphae (chromatin condensation); assay type: cell-based; settings: 50 μg/ml; spores 2 h, hyphae 16 h
Experimental: as §6
Fungal spore and hyphae were treated with 50 μg/ml peptide solution for 2 h and 16 h, respectively. Then the fungal cells were stained with 4′,6′-diamidino-2-phenylindole (DAPI) at a final concentration of 1 μg/ml in the dark for 10 min before observation under Leica DMIL florescent microscope equipped with a Leica A filter set (BP340-380 nm, DM 400 nm, LP425 nm). Sterile deionized water was used instead of the peptide solution as a control.

[11] = tested on: X. campestris XCP3; assay type: cell-based, Xanthomonas campestris
Experimental: as §1, §4, §3

[12] = tested on: B. cinerea; assay: Disease suppression assay, gray mold; assay type: in vivo, Botrytis cinerea on strawberry and orchid flowers; settings: different concentrations
Experimental: as §5
Synthetic LsGRP1^C solution (1 μl each) was dropped onto strawberry flowers, then mixed with 1 μl spore suspension of B. cinerea. […] LsGRP1^C solution (5 μl each) was dropped onto orchid flowers, then mixed with 5 μl spore suspension of B. cinerea.

[13] = tested on: C. acutatum HL1; assay type: cell-based, Colletotrichum acutatum; settings: Inhibition of fungal spore germination at 5 × 10^4 spores/ml
Experimental: as §1, with “Fungal spores with a concentration of 1×10^5 spores/ml were treated with 2.5 mg/ml peptide for 16-20 h before the observation of spore germination under light microscope.” left out
as §2, §3

[14] = tested on: A. brassicicola Ac1; assay type: cell-based, Alternaria brassicicola; settings: Inhibition of fungal spore germination at 5 × 10^4 spores/ml
Experimental: as §1, §2, §3

[15] = tested on: A. brassicicola Ac1, B. cinerea B-134, B. elliptica B061 and C. acutatum HL1; assay: H2DCFDA staining (reactive oxygen species accumulation), germinating spores; assay type: cell-based; settings: 50 μg/ml
Experimental: as §6, §7

[16] = tested on: B. elliptica B061; assay type: cell-based, Botrytis elliptica; settings: Inhibition of fungal spore germination at 5 × 10^4 spores/ml
Experimental: as §1, with “Fungal spores with a concentration of 1×10^5 spores/ml were treated with 2.5 mg/ml peptide for 16-20 h before the observation of spore germination under light microscope.” left out
as §2, §3

[17] = tested on: C. gleosporioides MT1; assay type: cell-based, Colletotrichum gleosporioides; settings: 2.5 mg/ml peptide, 16-20 h, 1×10^5 spores/ml
Experimental: as §1, §2, §3

[18] = tested on: all assayed bacterial species (six bacterial species); assay type: cell-based
Experimental: as §1, §4, §3

[19] = tested on: A. tumefaciens C58C^1; assay type: cell-based, Agrobacterium tumefaciens
Experimental: as §1, §4, §3

[20] = tested on: B. subtilis 28-4; assay type: cell-based, Bacillus subtilis; settings: Inhibition of bacterial growth (OD600 = 0.15)
Experimental: as §1, §4, §3

[21] = tested on: P. syringae; assay: Disease suppression assay, bacterial leaf spot in tomato; assay type: in vivo, Pseudomonas syringae on tomato leaves; settings: 6 days after inoculation
Experimental: as §5
LsGRP1^C solution (10 μl each) was dropped onto wounded tissues of tomato leaves, mixed with 10 μl bacterial suspension (10^7 CFU/ml) of pathogenic P. syringae, and then lesion development was examined 6 days after bacterial inoculation.

[22] = 2500 μg/ml peptide, 90 min, CFUs at 20-24 h
[23] = Inhibition of bacterial growth (OD600 = 0.15)

GRELAEETKENTEKRATEAGVADQKY [LsGRP1^N]
Inhibition of fungal spore germination ([1]; 2.5 mg/ml peptide, 16-20 h, 1×10^5 spores/ml): not affected
IC50 ([1]; Inhibition of fungal spore germination at 5 × 10^4 spores/ml): 58.26 µg/mL
IC50 on all assayed microbes [2]: below 86.13 μg/ml
Inhibition of bacterial growth [3]: over 98.5%
suppression of lesion development of cabbage black spot ([4]; 0.025 mg/ml, fungal inoculation 2 days before treatment): did not occur
lesion development of cabbage black spot ([4]; 0.25 mg/ml, treatment at same time or 1-2 day before/after inoculation): could be inhibited
IC50 [5]: 20.63 µg/mL
ROS accumulation (H2DCFDA) in non-germinating spores [6]: present
Inhibition of fungal spore germination, fungi other than B. elliptica B061 ([7]; 2.5 mg/ml peptide, 16-20 h, with the exception of B. elliptica B061): did not inhibit spore germination
IC50 on the assayed fungal species except B. elliptica ([7]; summary bound of Table 1): below 58.26 μg/ml
IC50 [8]: 9.67 µg/mL
morphology of spores and hyphae under light microscope [9]: abnormal blebbing and shrinkage
DAPI staining, nuclear chromatin condensation [10]: nuclear chromatin condensation
Inhibition of bacterial growth [11, 22]: 69.6%
IC50 [11, 23]: 32.19 µg/mL
lesion development of orchid gray mold ([12]; orchid flowers, 9 days after inoculation): could be suppressed
lesion development of strawberry gray mold ([12]; strawberry flowers, 3 days after inoculation): could be suppressed
IC50 [13]: 17.39 µg/mL
IC50 [14]: 54.80 µg/mL
ROS accumulation (H2DCFDA) in germinating spores [15]: visualized
IC50 [16]: 86.13 µg/mL
Inhibition of fungal spore germination [17]: not affected
Inhibition of bacterial growth on all assayed bacterial species ([18]; 2500 μg/ml, 90 min, CFUs at 20-24 h, all six species): more than 99.5%
IC50 on all assayed bacterial species except A. tumefaciens C58C^1 ([18]; summary bound of Table 1): lower than 32.19 μg/ml
Inhibition of bacterial growth [19, 22]: over 98.5%
IC50 [19, 23]: 71.79 µg/mL
IC50 [20]: 23.32 µg/mL
lesion development of bacterial leaf spot in tomato ([21]; 0.025 mg/ml): could inhibit lesion development
lesion development of bacterial leaf spot in tomato ([21]; 0.25 mg/ml): could inhibit lesion development

Reference: US9167816B2, “Antimicrobial composition for inhibiting microbial organisms and the method thereof” (National Taiwan University, priority 2013, dated 2015)
